What was measured:
[1] = target: T1, human SNAP‐GLP‐1 receptor (Homo sapiens, UniProt P43220); experiment: GLP‐1 receptor recycling by TR‐FRET in CHO‐K1‐SNAP‐GLP‐1 receptor cells; format: cell-based; conditions: H89 10 μM, exendin‐4 100 nM 30 min, n = 5
[2] = target: T1, human SNAP‐GLP‐1 receptor; experiment: cAMP by HTRF in HEK293‐SNAP‐GLP‐1 receptor cells; format: cell-based; conditions: 30 min incubation, n = 5

T1 sequence (P43220 24-463): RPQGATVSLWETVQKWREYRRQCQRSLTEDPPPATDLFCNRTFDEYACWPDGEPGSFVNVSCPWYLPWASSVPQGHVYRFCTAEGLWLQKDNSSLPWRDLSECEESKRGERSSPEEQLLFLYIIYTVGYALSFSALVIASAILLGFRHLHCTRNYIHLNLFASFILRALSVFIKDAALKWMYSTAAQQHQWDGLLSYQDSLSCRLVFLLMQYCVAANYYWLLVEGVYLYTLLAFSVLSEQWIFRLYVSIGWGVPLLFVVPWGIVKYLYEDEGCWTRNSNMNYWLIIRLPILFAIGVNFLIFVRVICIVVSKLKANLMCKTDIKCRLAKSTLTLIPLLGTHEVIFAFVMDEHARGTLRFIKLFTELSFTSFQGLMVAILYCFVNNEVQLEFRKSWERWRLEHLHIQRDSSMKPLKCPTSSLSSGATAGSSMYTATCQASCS

| effect on GLP‐1 receptor recycling after exendin‐4 pretreatment [1] | Compound | cAMP signalling potency of FITC conjugate [2] |
| --- | --- | --- |
| did not affect | O=S(=O)(NCCNC/C=C/c1ccc(Br)cc1)c1cccc2cnccc12 [H89] |  |
|  | lixisenatide‐FITC: FITC‐conjugate of lixisenatide | reduced cAMP signalling potency |
